Reference: ChEMBL document CHEMBL4257535, “Design, synthesis and biological evaluation of AKT inhibitors bearing a piperidin-4-yl appendant” (Medchemcomm, 2018)
pIC50: −log10 of the molar value. Active and inactive are the calls of the source. The rule behind the calls is not given here.

Experiments:
[1] = biological target: T1, RAC-alpha serine/threonine-protein kinase (Homo sapiens, UniProt P31749); test: Inhibition of AKT1 (unknown origin) using biotin-labelled STK as substrate measured after 45 mins by HTRF method
[2] = biological target: T1, RAC-alpha serine/threonine-protein kinase; test: Inhibition of AKT1 (unknown origin) at 0.1 uM using biotin-labelled STK as substrate measured after 45 mins by HTRF method relative to control
[3] = biological target: T1, RAC-alpha serine/threonine-protein kinase; test: Inhibition of AKT1 (unknown origin) at 1 uM using biotin-labelled STK as substrate measured after 45 mins by HTRF method relative to control
PC-3 [4] = test: Antiproliferative activity against human PC3 cells after 72 hrs by MTT assay; type: functional, cell-based; conditions: PC-3, 72 h
[5] = biological target: T2, Aurora kinase A (Homo sapiens) (UniProt O14965); test: Inhibition of Aurora A (unknown origin) at 1 uM after 40 mins by scintillation counting method relative to control
T2 sequence (whole entry): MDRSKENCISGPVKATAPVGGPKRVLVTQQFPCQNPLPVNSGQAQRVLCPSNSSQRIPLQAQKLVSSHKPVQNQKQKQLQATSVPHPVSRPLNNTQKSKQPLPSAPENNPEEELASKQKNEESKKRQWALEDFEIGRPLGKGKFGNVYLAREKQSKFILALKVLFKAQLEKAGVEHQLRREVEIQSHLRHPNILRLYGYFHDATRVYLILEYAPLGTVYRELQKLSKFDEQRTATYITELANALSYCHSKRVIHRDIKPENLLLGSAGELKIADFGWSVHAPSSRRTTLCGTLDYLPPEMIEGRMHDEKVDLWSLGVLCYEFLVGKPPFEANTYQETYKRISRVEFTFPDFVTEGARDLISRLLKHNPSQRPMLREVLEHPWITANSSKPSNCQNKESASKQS

[6] = biological target: Ribosomal protein S6 kinase alpha-1 (Homo sapiens) (UniProt Q15418); test: Inhibition of RSK1 (unknown origin) at 1 uM after 40 mins by scintillation counting method relative to control
Homo sapiens [7] = species on record: Homo sapiens; test: Inhibition of PKA (unknown origin) at 1 uM after 40 mins by scintillation counting method relative to control
[8] = biological target: Ribosomal protein S6 kinase (Homo sapiens) (UniProt P51812+Q9UBS0+O75676+Q15349+O75582+P23443+Q9UK32+Q15418); test: Inhibition of p70S6K (unknown origin) at 1 uM after 40 mins by scintillation counting method relative to control; type: protein assay
[9] = biological target: Tyrosine-protein kinase ABL1 (Homo sapiens) (UniProt P00519); test: Inhibition of ABL (unknown origin) at 1 uM after 40 mins by scintillation counting method relative to control
[10] = biological target: Serine/threonine-protein kinase B-raf (Homo sapiens) (UniProt P15056); test: Inhibition of BRAF (unknown origin) at 1 uM after 40 mins by scintillation counting method relative to control
[11] = biological target: Glycogen synthase kinase-3 beta (Homo sapiens) (UniProt P49841); test: Inhibition of GSK3beta (unknown origin) at 1 uM after 40 mins by scintillation counting method relative to control
[12] = biological target: Tyrosine-protein kinase JAK1 (Homo sapiens) (UniProt P23458); test: Inhibition of JAK1 (unknown origin) at 1 uM after 40 mins by scintillation counting method relative to control
[13] = biological target: RAF proto-oncogene serine/threonine-protein kinase (Homo sapiens) (UniProt P04049); test: Inhibition of RAF1 (unknown origin) at 1 uM after 40 mins by scintillation counting method relative to control
[14] = biological target: Rho-associated protein kinase 1 (Homo sapiens) (UniProt Q13464); test: Inhibition of ROCK1 (unknown origin) at 1 uM after 40 mins by scintillation counting method relative to control
[15] = biological target: T3, Serine/threonine-protein kinase Chk1 (Homo sapiens) (UniProt O14757); test: Inhibition of CHK1 (unknown origin) at 1 uM after 40 mins by scintillation counting method relative to control
T3 sequence (whole entry): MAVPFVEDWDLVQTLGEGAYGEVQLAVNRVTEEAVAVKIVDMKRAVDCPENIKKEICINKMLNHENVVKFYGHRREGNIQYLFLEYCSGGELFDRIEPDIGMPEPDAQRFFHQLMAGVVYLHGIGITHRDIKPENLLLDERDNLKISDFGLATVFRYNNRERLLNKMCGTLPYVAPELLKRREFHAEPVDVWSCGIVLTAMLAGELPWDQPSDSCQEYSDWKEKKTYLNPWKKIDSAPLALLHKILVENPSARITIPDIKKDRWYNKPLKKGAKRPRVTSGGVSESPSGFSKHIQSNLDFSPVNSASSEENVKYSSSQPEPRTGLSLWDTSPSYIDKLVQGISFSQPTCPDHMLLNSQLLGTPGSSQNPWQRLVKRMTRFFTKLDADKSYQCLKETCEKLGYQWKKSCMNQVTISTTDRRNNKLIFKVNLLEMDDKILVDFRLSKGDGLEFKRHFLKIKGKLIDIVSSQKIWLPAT

[16] = biological target: RAC-beta serine/threonine-protein kinase (Homo sapiens) (UniProt P31751); test: Inhibition of AKT2 (unknown origin) at 10 nM after 40 mins by scintillation counting method relative to control
Homo sapiens [17] = species on record: Homo sapiens; test: Selectivity ratio of compound effect for inhibition of AKT3 (unknown origin) to compound effect for inhibition of AKT2 (unknown origin)
PC-3 [18] = test: Induction of apoptosis in human PC3 cells assessed as live cells at 1 uM after 48 hrs by Annexin V-FITC/propidium iodide staining based flow cytometry (reference value: 97.19%); type: functional
PC-3 [19] = test: Induction of apoptosis in human PC3 cells assessed as early apoptotic cells at 1 uM after 48 hrs by Annexin V-FITC/propidium iodide staining based flow cytometry (reference value: 1.05%); type: functional
PC-3 [20] = test: Induction of apoptosis in human PC3 cells assessed as late apoptotic cells at 1 uM after 48 hrs by Annexin V-FITC/propidium iodide staining based flow cytometry (reference value: 0.27%); type: functional
PC-3 [21] = test: Induction of apoptosis in human PC3 cells assessed as live cells at 5 uM after 48 hrs by Annexin V-FITC/propidium iodide staining based flow cytometry (reference value: 97.19%); type: functional
PC-3 [22] = test: Induction of apoptosis in human PC3 cells assessed as late apoptotic cells at 5 uM after 48 hrs by Annexin V-FITC/propidium iodide staining based flow cytometry (reference value: 0.27%); type: functional
PC-3 [23] = test: Induction of apoptosis in human PC3 cells assessed as live cells at 10 uM after 48 hrs by Annexin V-FITC/propidium iodide staining based flow cytometry (reference value: 97.19%); type: functional
PC-3 [24] = test: Induction of apoptosis in human PC3 cells assessed as early apoptotic cells at 10 uM after 48 hrs by Annexin V-FITC/propidium iodide staining based flow cytometry (reference value: 1.05%); type: functional
PC-3 [25] = test: Induction of apoptosis in human PC3 cells assessed as late apoptotic cells at 10 uM after 48 hrs by Annexin V-FITC/propidium iodide staining based flow cytometry (reference value: 0.27%); type: functional
in vitro [26] = test: in vitro; parameters: dose or concentration left out as unconfirmed; conditions: human, liver microsomes
Description: Intrinsic clearance in human liver microsomes at 10 mM preincubated for 10 mins followed by NADPH addition and measured after 5 to 60 mins by LC-MS analysis

in vitro [27] = test: in vitro; parameters: dose or concentration left out as unconfirmed; conditions: human, liver microsomes; remark: listed apart in the source
Description: Stability in human liver microsomes assessed as parent compound remaining at 10 mM preincubated for 10 mins followed by NADPH addition and measured after 60 mins by LC-MS analysis

T1 sequence (P31749 whole entry): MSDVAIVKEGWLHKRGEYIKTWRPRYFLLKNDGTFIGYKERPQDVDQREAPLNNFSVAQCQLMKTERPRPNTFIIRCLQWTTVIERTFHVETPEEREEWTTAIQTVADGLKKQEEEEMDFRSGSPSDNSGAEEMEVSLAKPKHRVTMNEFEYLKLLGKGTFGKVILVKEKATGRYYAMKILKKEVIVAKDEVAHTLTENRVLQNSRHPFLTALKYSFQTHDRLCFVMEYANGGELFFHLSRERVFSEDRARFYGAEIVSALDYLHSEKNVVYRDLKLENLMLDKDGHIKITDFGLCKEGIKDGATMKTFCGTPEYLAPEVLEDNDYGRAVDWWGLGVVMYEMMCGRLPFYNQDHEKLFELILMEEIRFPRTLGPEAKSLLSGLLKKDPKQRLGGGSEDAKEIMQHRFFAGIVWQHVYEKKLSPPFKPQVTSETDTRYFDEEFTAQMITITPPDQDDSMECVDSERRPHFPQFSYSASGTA
RAC-beta serine/threonine-protein kinase (Homo sapiens), sequence (P31751 whole entry): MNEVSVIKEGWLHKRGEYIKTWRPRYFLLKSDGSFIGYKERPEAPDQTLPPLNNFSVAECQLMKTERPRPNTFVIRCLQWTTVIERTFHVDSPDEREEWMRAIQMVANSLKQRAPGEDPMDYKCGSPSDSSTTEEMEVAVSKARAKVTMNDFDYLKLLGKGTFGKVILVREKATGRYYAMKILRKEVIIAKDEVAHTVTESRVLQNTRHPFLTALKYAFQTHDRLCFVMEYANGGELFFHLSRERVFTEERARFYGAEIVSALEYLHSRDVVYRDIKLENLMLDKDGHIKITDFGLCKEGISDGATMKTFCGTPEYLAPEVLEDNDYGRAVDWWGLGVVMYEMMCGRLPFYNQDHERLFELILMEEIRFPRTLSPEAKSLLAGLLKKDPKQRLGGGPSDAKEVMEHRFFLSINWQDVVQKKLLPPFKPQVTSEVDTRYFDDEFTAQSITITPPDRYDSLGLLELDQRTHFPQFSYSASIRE
Rho-associated protein kinase 1 (Homo sapiens), sequence (Q13464 2-1354 limits assumed): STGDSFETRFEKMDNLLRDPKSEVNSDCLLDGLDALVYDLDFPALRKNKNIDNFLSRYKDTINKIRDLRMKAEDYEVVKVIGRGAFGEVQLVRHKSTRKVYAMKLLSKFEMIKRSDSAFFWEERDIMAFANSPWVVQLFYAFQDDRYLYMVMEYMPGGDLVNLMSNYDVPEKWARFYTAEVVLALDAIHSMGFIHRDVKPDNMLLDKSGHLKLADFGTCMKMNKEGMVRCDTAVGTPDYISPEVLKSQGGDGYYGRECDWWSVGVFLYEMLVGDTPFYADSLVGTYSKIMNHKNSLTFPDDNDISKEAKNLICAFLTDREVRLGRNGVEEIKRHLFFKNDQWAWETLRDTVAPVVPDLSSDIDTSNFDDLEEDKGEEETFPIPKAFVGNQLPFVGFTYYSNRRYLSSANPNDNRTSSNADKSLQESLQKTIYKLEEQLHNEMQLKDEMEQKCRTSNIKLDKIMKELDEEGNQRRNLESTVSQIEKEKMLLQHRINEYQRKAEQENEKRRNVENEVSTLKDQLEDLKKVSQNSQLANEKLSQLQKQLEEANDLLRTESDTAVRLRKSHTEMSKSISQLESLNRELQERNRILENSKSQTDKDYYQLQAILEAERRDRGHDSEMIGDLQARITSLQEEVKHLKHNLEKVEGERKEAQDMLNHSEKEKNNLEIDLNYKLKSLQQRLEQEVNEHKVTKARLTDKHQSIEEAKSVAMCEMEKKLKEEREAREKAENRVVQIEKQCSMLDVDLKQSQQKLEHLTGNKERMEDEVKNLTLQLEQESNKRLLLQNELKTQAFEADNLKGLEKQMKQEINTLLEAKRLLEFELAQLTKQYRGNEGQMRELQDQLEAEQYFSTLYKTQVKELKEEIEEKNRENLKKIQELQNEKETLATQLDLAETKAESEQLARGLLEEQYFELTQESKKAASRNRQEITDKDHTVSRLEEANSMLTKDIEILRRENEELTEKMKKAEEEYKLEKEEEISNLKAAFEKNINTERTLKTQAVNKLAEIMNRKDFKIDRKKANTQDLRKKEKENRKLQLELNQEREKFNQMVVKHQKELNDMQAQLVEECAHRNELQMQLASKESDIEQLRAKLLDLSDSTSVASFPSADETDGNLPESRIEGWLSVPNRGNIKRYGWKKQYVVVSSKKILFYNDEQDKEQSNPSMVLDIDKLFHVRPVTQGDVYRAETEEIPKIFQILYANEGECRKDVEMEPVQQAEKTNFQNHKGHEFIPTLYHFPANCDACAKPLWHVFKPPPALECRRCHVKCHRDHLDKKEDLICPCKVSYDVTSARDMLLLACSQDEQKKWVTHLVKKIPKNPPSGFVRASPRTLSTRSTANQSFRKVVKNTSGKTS
Tyrosine-protein kinase JAK1 (Homo sapiens), sequence (P23458 whole entry): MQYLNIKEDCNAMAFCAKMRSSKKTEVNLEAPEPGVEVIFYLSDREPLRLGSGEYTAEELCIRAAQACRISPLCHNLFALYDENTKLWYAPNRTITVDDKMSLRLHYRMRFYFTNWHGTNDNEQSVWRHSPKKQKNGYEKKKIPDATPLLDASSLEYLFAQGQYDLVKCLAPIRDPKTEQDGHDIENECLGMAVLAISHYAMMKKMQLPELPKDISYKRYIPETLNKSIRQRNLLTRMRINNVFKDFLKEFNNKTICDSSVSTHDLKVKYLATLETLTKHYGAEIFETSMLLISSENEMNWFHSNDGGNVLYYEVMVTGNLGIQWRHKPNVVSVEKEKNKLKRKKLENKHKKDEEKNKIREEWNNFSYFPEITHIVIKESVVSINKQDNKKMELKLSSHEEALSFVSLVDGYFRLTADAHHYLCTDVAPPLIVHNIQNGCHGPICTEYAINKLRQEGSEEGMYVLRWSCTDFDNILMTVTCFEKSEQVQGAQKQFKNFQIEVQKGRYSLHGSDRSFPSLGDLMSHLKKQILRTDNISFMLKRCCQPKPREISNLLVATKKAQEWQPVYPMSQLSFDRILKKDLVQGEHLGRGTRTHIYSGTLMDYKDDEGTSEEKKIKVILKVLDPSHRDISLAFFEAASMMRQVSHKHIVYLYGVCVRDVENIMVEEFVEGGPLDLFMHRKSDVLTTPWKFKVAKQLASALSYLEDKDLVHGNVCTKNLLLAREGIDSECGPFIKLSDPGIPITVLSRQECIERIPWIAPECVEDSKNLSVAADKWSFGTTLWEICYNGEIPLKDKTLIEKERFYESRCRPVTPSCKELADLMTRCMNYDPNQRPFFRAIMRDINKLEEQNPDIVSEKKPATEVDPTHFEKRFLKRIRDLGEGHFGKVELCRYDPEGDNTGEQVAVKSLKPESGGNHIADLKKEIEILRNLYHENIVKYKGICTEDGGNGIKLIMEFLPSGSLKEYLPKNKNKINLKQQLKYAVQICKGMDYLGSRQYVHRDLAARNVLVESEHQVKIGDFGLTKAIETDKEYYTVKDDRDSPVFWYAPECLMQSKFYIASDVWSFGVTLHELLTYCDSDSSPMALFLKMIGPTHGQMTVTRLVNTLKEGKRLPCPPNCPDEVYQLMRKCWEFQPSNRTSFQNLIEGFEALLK
Serine/threonine-protein kinase B-raf (Homo sapiens), sequence (P15056 whole entry): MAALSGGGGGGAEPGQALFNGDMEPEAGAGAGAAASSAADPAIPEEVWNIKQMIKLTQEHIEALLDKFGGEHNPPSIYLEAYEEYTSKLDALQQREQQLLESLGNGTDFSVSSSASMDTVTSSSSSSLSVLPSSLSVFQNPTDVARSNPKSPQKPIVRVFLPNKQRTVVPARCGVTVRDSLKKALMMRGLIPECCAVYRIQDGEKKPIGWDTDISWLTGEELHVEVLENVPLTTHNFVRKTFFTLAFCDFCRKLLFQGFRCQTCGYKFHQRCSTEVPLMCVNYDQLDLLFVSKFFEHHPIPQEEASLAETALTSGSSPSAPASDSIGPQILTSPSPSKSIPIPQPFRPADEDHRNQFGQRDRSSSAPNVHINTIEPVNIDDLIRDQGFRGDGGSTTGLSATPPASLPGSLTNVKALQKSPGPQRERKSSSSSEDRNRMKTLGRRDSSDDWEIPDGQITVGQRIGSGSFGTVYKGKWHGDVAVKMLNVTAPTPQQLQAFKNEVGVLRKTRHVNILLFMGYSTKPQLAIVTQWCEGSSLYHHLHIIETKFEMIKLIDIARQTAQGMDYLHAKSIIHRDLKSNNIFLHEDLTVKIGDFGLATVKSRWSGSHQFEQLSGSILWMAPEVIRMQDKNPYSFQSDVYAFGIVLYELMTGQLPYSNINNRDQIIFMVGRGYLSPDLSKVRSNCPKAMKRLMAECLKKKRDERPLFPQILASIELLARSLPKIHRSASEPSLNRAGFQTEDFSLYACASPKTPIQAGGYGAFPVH
Glycogen synthase kinase-3 beta (Homo sapiens), sequence (P49841 whole entry, looked up): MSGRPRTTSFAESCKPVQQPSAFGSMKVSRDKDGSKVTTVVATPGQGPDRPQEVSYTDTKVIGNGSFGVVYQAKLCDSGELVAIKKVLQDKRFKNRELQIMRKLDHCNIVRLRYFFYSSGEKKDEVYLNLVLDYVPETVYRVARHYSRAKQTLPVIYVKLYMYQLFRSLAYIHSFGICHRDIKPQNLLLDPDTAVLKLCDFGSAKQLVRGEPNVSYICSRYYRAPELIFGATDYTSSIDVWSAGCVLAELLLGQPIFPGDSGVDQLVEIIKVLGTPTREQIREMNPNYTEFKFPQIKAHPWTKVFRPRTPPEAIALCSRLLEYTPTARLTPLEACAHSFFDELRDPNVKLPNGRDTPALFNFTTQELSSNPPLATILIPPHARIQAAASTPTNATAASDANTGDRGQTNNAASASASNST

SMILES: O=C(N1CCN(c2ncnc3[nH]nc(Cl)c23)CC1)C1(c2ccc(Cl)c(Cl)c2)CCNCC1
- pIC50 [1]: 7.61
- inhibition [2]: 83.7%
- inhibition [3]: 94.3%
- pIC50 (PC-3 [4]): 5.43
- inhibition [5]: 64%
- inhibition [6]: 83%
- inhibition (Homo sapiens [7]): 99%
- inhibition [8]: 99%
- inhibition [9]: inactive
- inhibition [10]: inactive
- inhibition [11]: inactive
- inhibition [12]: inactive
- inhibition [13]: inactive
- inhibition [14]: inactive
- inhibition [15]: inactive
- inhibition [16]: 38%
- Selectivity ratio (Homo sapiens [17]): > 2
- Activity (PC-3 [18]): 90.48%
- Activity (PC-3 [19]): 2.7%
- Activity (PC-3 [20]): 4.82%
- Activity (PC-3 [21]): 88.11%
- Activity (PC-3 [22]): 6.2%
- Activity (PC-3 [23]): 68.92%
- Activity (PC-3 [24]): 11.23%
- Activity (PC-3 [25]): 16.6%
- CLint scaled (in vitro [26]): < 8.6 mL/min/kg
- microsomal CLint (in vitro [26]): < 9.6 µL/min/mg
- remaining at 1 h (in vitro [27]): 81.8%
